Data taken from PMC8041284, “Tunable Methacrylamides for Covalent Ligand Directed Release Chemistry” (Journal of the American Chemical Society, 2021).

These compounds were tested against BTK (Homo sapiens, UniProt Q06187) (assay: biochemical). Settings: read-out: BTK inhibition (%).
BTK, sequence (Q06187 402-655 limits assumed): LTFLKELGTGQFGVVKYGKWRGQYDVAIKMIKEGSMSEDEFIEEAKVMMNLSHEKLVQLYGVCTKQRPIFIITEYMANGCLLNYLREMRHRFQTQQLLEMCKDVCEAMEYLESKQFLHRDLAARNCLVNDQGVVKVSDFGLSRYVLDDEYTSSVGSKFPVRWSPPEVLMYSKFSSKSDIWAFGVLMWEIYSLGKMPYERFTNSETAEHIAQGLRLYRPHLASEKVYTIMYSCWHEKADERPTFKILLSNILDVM
For CC(=O)O[C@H]1[C@H]2[C@@H](OC(=O)Cc3ccccc3)[C@@H](C)C[C@]2(OC(C)=O)C(=O)/C(C)=C/[C@@H]2[C@H](CC[C@@]13CO3)C2(C)C [PCM-0215129], the inhibition at 10 µM was -14%.
Oc1ccc(-c2c(-c3ccccc3)nn3c(C(F)(F)F)cc(C(F)(F)F)nc23)cc1 [PCM-0216048] gave an inhibition at 10 µM of 27.8%.
In the case of CN1c2ccccc2C(NCCCCCCC(=O)O)c2ccc(Cl)cc2S1(=O)=O (stereo not drawn) [PCM-0095097], the inhibition at 10 µM is reported as -13.2%.
With ClCCN(Cc1ccccc1)Cc1ccccc1 [PCM-0216162] the inhibition at 10 µM was -20.1%.
With O=C(O)CCCCCCCCCO [PCM-0216560] the inhibition at 10 µM was 14.7%.
C/C(=C\c1csc(C)n1)[C@@H]1C[C@@H]2O[C@@H]2CCC[C@H](C)[C@H](O)[C@@H](C)C(=O)C(C)(C)[C@@H](O)CC(=O)O1 [PCM-0095086] showed an inhibition at 10 µM of 1.6%.

Same assay, conditions: read-out: BTK inhibition (%), 0.75 uM BTK, […] probe 3l, 15 min preincubation
NC1CCC(N[C@@H]2C[C@H]2c2ccccc2)CC1 (stereo partly drawn) [PCM-0215562] was tested, and the inhibition at 10 µM was 13.1%.
Compound CCCN1CCO[C@@H]2c3cc(O)ccc3OC[C@H]21 [PCM-0095211] has an inhibition at 10 µM of -8.6%.
Work on NC(=O)Cc1c[nH]c2ccccc12 [PCM-0216587] yielded an inhibition at 10 µM of 3.1%.
Compound CC[C@@H]1CN2CC[C@@]3(C(=O)Nc4ccccc43)[C@@H]2C[C@@H]1/C(=C\OC)C(=O)OC [PCM-0216594] has an inhibition at 10 µM of -15.4%.
With COc1cc2ncnc(Nc3ccc(Oc4ccccc4)cc3C)c2cc1OC [PCM-0215704] the inhibition at 10 µM was 110%.
Work on O=[N+]([O-])c1ccc(S(=O)(=O)N2CCN(c3ccnc4cc(Cl)ccc34)CC2)c([N+](=O)[O-])c1 [PCM-0215531] yielded an inhibition at 10 µM of -12.4%.
Work on C=CC(=O)Nc1cccc(Nc2nc(Nc3ccc(N4CCN(C(C)=O)CC4)cc3OC)ncc2C(F)(F)F)c1 [PCM-0215245] yielded an inhibition at 10 µM of 95.9%.
Nc1ccc(F)cc1NC(=O)c1ccc(CNC(=O)/C=C/c2cccnc2)cc1 [PCM-0215868] showed an inhibition at 10 µM of -5.4%.
Compound CN(Cc1cc(Br)cc(Br)c1N)C1CCCCC1 [PCM-0086201] has an inhibition at 10 µM of 29.6%.
For COc1ccc(COc2ccc(CC#N)cc2)cc1 [PCM-0215565], the inhibition at 10 µM was -9.3%.
With COc1cn(-c2ccc(-n3cccn3)cc2F)nc(-c2ccnn2-c2ccccc2)c1=O [PCM-0215765] the inhibition at 10 µM was 2.3%.
Compound C[C@@H]1Cc2c([nH]c3ccccc23)[C@@H](c2c(F)cc(/C=C/C(=O)O)cc2F)N1CC(C)(C)F [PCM-0215727] has an inhibition at 10 µM of 30.9%.
With Cc1ccccc1N=Nc1ccc(NC(=O)c2ccnn2C)c(C)c1 [PCM-0215441] the inhibition at 10 µM was 6.9%.
For CN1CCN(C(=O)c2ccc(-c3ccc4c(C=O)c(O)ccc4c3)s2)CC1 [PCM-0215885], the inhibition at 10 µM was 77.2%.
In the case of Cc1cc([C@@H](C)Nc2ccccc2C(=O)O)c2nc(N3CCOCC3)cc(=O)n2c1 [PCM-0214725], the inhibition at 10 µM is reported as -6.9%.
Nc1ccc(S(=O)(=O)Nc2cncc(Cl)n2)cc1 [PCM-0215142] was tested, and the inhibition at 10 µM was -10.9%.
In the case of COc1cc2c(cc1OC(C)C)[C@H](c1ccc(Cl)cc1)N(c1ccc(N(C)CC3CCC(N4CCN(C)C(=O)C4)CC3)cc1)C(=O)C2 (stereo partly drawn) [PCM-0215723], the inhibition at 10 µM is reported as 57.9%.
With C=C(C)[C@@H]1CC[C@]2(C(=O)O)CC[C@]3(C)[C@H](CC[C@@H]4[C@@]5(C)CC[C@H](OC(=O)CC(C)(C)C(=O)O)C(C)(C)[C@@H]5CC[C@]43C)[C@@H]12 [PCM-0216605] the inhibition at 10 µM was 17.8%.
COc1ncc(-c2cc(-c3ncc(CN4C[C@@H](C)O[C@@H](C)C4)o3)c3cn[nH]c3c2)cc1NS(C)(=O)=O [PCM-0213408] gave an inhibition at 10 µM of 6.2%.
With Fc1ccc2c(/C=C/c3nn[nH]n3)c[nH]c2c1 [PCM-0215746] the inhibition at 10 µM was 4.6%.
For CC1(C)CCC[C@](C)([C@H]2CC[C@]3(C)[C@@H]2[C@H](O)C[C@@H]2[C@@]4(C)CC[C@H](O)C(C)(C)[C@@H]4[C@H](O)C[C@]23C)O1 [PCM-0215005], the inhibition at 10 µM was -2.8%.
In the case of OCCc1ccc(O)c(O)c1 [PCM-0214956], the inhibition at 10 µM is reported as -2.3%.
For COc1ccc(-c2oc3cc(O)cc(O)c3c(=O)c2O)cc1 [PCM-0215098], the inhibition at 10 µM was 5.5%.
Compound O=C(O)c1ccccc1C(=O)Nc1ccc(-c2ccccc2)cc1 [PCM-0215383] has an inhibition at 10 µM of 13.9%.
With CC/C(=C(\c1ccc(O)cc1)c1ccc(OCCNC)cc1)c1ccccc1 [PCM-0215485] the inhibition at 10 µM was 14.7%.
Work on COc1cc2nccc(Oc3ccc(NC(=O)c4cn(C(C)C)c(=O)n(-c5ccc(F)cc5)c4=O)cc3F)c2cc1OC [PCM-0215831] yielded an inhibition at 10 µM of 12.4%.
Compound Cc1onc(-c2ccccc2)c1-c1ccc(S(N)(=O)=O)cc1 [PCM-0095602] has an inhibition at 10 µM of -38.6%.
COc1ccc(-n2c(C)c([N+](=O)[O-])c3ccc(O)cc32)cc1 [PCM-0215272] was tested, and the inhibition at 10 µM was 23.4%.
Work on O[C@@H]1CO[C@H]2[C@@H]1OC[C@@H]2O [PCM-0214776] yielded an inhibition at 10 µM of -3.9%.
Compound O=Cc1ccc(O[C@@H]2O[C@H](CO)[C@@H](O)[C@@H](O)[C@H]2O)cc1 [PCM-0215018] has an inhibition at 10 µM of 7%.
Nc1[nH]c(=O)nc2c1ncn2[C@@H]1O[C@H](CO)[C@@H](O)[C@H]1O [PCM-0216517] gave an inhibition at 10 µM of -11.6%.
With O=C(Nc1cc2cc[nH]c2cn1)c1ccccc1 [PCM-0215233] the inhibition at 10 µM was 0.8%.
Compound C/C(=C\c1csc(C)n1)[C@@H]1C[C@@H]2O[C@]2(C)CCC[C@H](C)[C@H](O)[C@@H](C)C(=O)C(C)(C)[C@@H](O)CC(=O)O1 [PCM-0094998] has an inhibition at 10 µM of -9.3%.
O=C1NC(=O)/C(=C/c2ccc3c(c2)OC(F)(F)O3)S1 [PCM-0095357] gave an inhibition at 10 µM of 9.7%.
Cc1cc(O)c(C(=O)CCC(C)C)c(=O)o1 [PCM-0216387] gave an inhibition at 10 µM of 5.4%.
Compound CC(C)N(CCCNC(=O)Nc1ccc(C(C)(C)C)cc1)C[C@H]1O[C@@H](n2ccc3c(N)ncnc32)[C@H](O)[C@@H]1O [PCM-0215195] has an inhibition at 10 µM of -18.5%.
CC[C@H](C)C(=O)O[C@H]1C[C@@H](C)C=C2C=C[C@H](C)[C@H](CC[C@@H]3C[C@@H](O)CC(=O)O3)[C@H]21 [PCM-0086045] was tested, and the inhibition at 10 µM was 9.3%.
O=C(c1ccc(OCCCc2cnc[nH]2)cc1)C1CC1 [PCM-0065087] gave an inhibition at 10 µM of -14.5%.
For C=C1C[C@@]23CC[C@H]4[C@@](C)(CCC[C@@]4(C)C(=O)O[C@@H]4O[C@H](CO)[C@@H](O)[C@H](O)[C@H]4O)[C@@H]2CC[C@]1(O[C@@H]1O[C@H](CO)[C@@H](O)[C@H](O[C@@H]2O[C@H](CO)[C@@H](O)[C@H](O)[C@H]2O)[C@H]1O[C@@H]1O[C@@H](C)[C@H](O)[C@@H](O)[C@H]1O)C3 [PCM-0214859], the inhibition at 10 µM was -14.8%.
Compound CC(=O)[C@H]1CC[C@H]2[C@@H]3CCC4=CC(=O)CC[C@]4(C)[C@H]3CC[C@]12C [PCM-0064761] has an inhibition at 10 µM of -7.8%.
CCCCN1CCCCC1C(=O)Nc1c(C)cccc1C (stereo not drawn) [PCM-0085904] showed an inhibition at 10 µM of -9.3%.
CC(C)(C(=O)O)c1ccc(C(O)CCCN2CCC(C(O)(c3ccccc3)c3ccccc3)CC2)cc1 (stereo not drawn) [PCM-0065056] gave an inhibition at 10 µM of -10.3%.
Work on C/C=C/c1ccc(OC)cc1 [PCM-0090331] yielded an inhibition at 10 µM of 18.7%.
In the case of CCCOC(=O)c1cc(O)c(O)c(O)c1 [PCM-0215973], the inhibition at 10 µM is reported as 11.6%.
Work on NC(=O)C[C@H](N)C(=O)O [PCM-0216200] yielded an inhibition at 10 µM of 13.6%.
Work on CC(C)c1cc(-c2n[nH]c(=O)n2-c2ccc3c(ccn3C)c2)c(O)cc1O [PCM-0094991] yielded an inhibition at 10 µM of 12.4%.
With Cc1cc(-n2c(=O)[nH]c(=O)n(C)c2=O)ccc1Oc1ccc(SC(F)(F)F)cc1 [PCM-0086289] the inhibition at 10 µM was -0.8%.
CCCCN(Cc1ccc(C(=O)NO)cc1)C(=O)Nc1ccccc1 [PCM-0215294] was tested, and the inhibition at 10 µM was 23.9%.
In the case of CC(C)OC(=O)CCC/C=C\C[C@@H]1[C@@H](/C=C/[C@@H](O)COc2cccc(C(F)(F)F)c2)[C@H](O)C[C@@H]1O [PCM-0215893], the inhibition at 10 µM is reported as -28%.
CC1Cc2ccccc2N1NC(=O)c1ccc(Cl)c(S(N)(=O)=O)c1 (stereo not drawn) [PCM-0085884] gave an inhibition at 10 µM of 6.2%.
For Cc1ccc(C(=O)N(CCCN)[C@@H](c2nc3cc(Cl)ccc3c(=O)n2Cc2ccccc2)C(C)C)cc1 [PCM-0095123], the inhibition at 10 µM was 11.7%.
In the case of NC(=O)/C(=C/n1cnc(-c2cc(C(F)(F)F)cc(C(F)(F)F)c2)n1)c1cncnc1 [PCM-0215821], the inhibition at 10 µM is reported as -10%.
Compound CC(C)C[C@H](NP(=O)(O)O[C@@H]1O[C@@H](C)[C@H](O)[C@@H](O)[C@H]1O)C(=O)N[C@@H](Cc1c[nH]c2ccccc12)C(=O)O [PCM-0215347] has an inhibition at 10 µM of 14.7%.
In the case of CCCSc1nc(N[C@@H]2C[C@H]2c2ccc(F)c(F)c2)c2nnn([C@@H]3C[C@H](OCCO)[C@@H](O)[C@H]3O)c2n1 [PCM-0095628], the inhibition at 10 µM is reported as -34.2%.
Work on C=CC(=O)Nc1cc(N2CCN(CC)CC2)ccc1Nc1cc(N(C)C(=O)Nc2c(Cl)c(OC)cc(OC)c2Cl)ncn1 [PCM-0215942] yielded an inhibition at 10 µM of 19.3%.
O=C(O)c1ccc(-n2nc(-c3ccccc3O)nc2-c2ccccc2O)cc1 [PCM-0095168] was tested, and the inhibition at 10 µM was 36.6%.
With CNC(=O)c1c(C)oc2cc(Oc3ncnc4cc(OC)c(OC)cc34)ccc12 [PCM-0216648] the inhibition at 10 µM was 1.4%.
In the case of CCCCCCCC/C=C\CCCCCCCCCCCC(=O)O [PCM-0216153], the inhibition at 10 µM is reported as -64.9%.
CCCCC1=NC2(CCCC2)C(=O)N1Cc1ccc(-c2ccccc2-c2nn[nH]n2)cc1 [PCM-0090383] gave an inhibition at 10 µM of 4.3%.
With CC(C)(C)C(O)/C(=C\c1ccc(Cl)cc1)n1cncn1 (stereo not drawn) [PCM-0214890] the inhibition at 10 µM was -16.3%.
CC(C)OC(=O)CCC/C=C\C[C@@H]1[C@@H](CC[C@@H](O)CCc2ccccc2)[C@H](O)C[C@@H]1O [PCM-0215712] gave an inhibition at 10 µM of -13.1%.
CS(=O)(=O)Nc1cc2occ(NC=O)c(=O)c2cc1Oc1ccccc1 [PCM-0216251] was tested, and the inhibition at 10 µM was 6.2%.
For O=c1c(-c2ccc(O[C@@H]3O[C@H](CO)[C@@H](O)[C@H](O)[C@H]3O)cc2)coc2cc(O)cc(O)c12 [PCM-0215108], the inhibition at 10 µM was -9.7%.
CCS(=O)(=O)N1CCN(c2ccc(Nc3ncc(C(N)=O)c(NC4CC4)n3)cc2)CC1 [PCM-0215389] gave an inhibition at 10 µM of 85.5%.
O=C1C=CC[C@@H]2[C@H]3CCCN4CCC[C@@H](CN12)[C@@H]34 [PCM-0094851] gave an inhibition at 10 µM of 13.2%.
With COc1cc2ncnc(Nc3ccc(Cl)cc3F)c2cc1OC [PCM-0095361] the inhibition at 10 µM was 31%.
Work on Nc1nc2c(c(=O)[nH]1)N(C=O)C(CNc1ccc(C(=O)N[C@@H](CCC(=O)O)C(=O)O)cc1)CN2 (stereo partly drawn) [PCM-0086396] yielded an inhibition at 10 µM of -17.9%.
C=C(Cc1ccccc1Cl)C(=O)OCC [PCM-0215835] showed an inhibition at 10 µM of -4.1%.
CCn1c(=O)c(-c2ccc(-c3cncs3)cc2Cl)cc2cnc(Nc3ccc(N4CCN(C)CC4)cc3)nc21 [PCM-0215453] was tested, and the inhibition at 10 µM was 18.6%.
